Test results: paper PMC9495854, “Novel Phenothiazine/Donepezil-like Hybrids Endowed with Antioxidant Activity for a Multi-Target Approach to the Therapy of Alzheimer’s Disease” (Antioxidants, 2022)
Marks after values point to notes of the source that are not given here.

What was measured:
[1] = DPPH radical scavenging assay; details: DPPH 100 µM in methanol, 30 min
Description: A previously reported method (Blois) with some modifications (Mishra, Ojha, & Chaudhury, 2012) was used to carry out the DPPH assay in 96-well microtiter plates. Each tested compound was dissolved in methanol, after which a freshly prepared solution of DPPH in methanol (100 µM final concentration) was added. Following vigorous stirring, each mixture was left in the dark for 30 min at room temperature, after which absorbance values for each well were read at 520 nm using a spectrophotometric plate reader (VICTOR^3 V multilabel plate reader, PerkinElmer). Antioxidant activity was determined as RSA% (radical scavenging activity). The value was calculated using following equation: RSA% = 100 × [(Ao − Ai)/Ao], where Ao and Ai represent DPPH absorbance in absence or in presence of antioxidant, respectively. Antiradical curves for calculating the EC50 values were obtained by testing each compound at several concentrations. Values of all parameters are expressed as mean ± SEM of at least three independent measurements in triplicate.

hBChE = target: T1, hBChE (Homo sapiens, UniProt P06276); assay: biochemical; details: mean ± SEM
T1 construct: purchased
Description: (§1) The experiments were carried out using a properly modified version of Ellman’s spectrophotometric assay, adapted to a 96-well plate procedure. All reagents, including enzymes, were purchased from common suppliers. Incubation of the proper enzyme with the single compound at different concentrations was performed in clear flat-bottomed, 96-well plates (Greiner Bio-One GmbH, Frickenhausen, Germany) and in duplicate. […] Fluorescence measures were carried out using Tecan Infinite M1000 Pro multiplate reader (Tecan, Cernusco S.N., Italy). IC50 values and inhibition values were calculated as the mean of three independent experiments and are expressed as mean ± SEM [13].

[2] = MTT cell viability assay, SH-SY5Y; format: cell-based; details: human, SH-SY5Y cells, SHSY-5Y; for IC50 at 1 h: 1 h exposure; for IC50 at 24 h: 24 h exposure, read-out: MTT cytotoxicity IC50 ± SEM SHSY-5Y 24 h
Description: (§2) Human hepatocellular liver carcinoma (HepG2) cell line and human neuroblastoma cell line, SH-SY5Y, were purchased from the American Type Culture Collection (ATCC, Manassas, VA, USA) and maintained at 37 °C in a humidified atmosphere (95% air and 5% carbon dioxide), and they were periodically screened for contamination. HepG2 cells were cultured in Eagle’s Minimum Essential Medium (MEM, Euroclone S.p.A., Pero, MI, Italy), supplemented with 10% Fetal Bovine Serum (FBS, Euroclone S.p.A., Pero, MI, Italy), 1% L-glutamine (Euroclone S.p.A., Pero, MI, Italy), 100 U/mL penicillin/streptomycin (Euroclone S.p.A., Pero, MI, Italy), 1% Non-Essential Amino Acids (NEAA, Euroclone S.p.A., Pero, MI, Italy). SH-SY5Y cells were grown in a 1:1 mixture of Dulbecco’s modified Eagle’s medium (DMEM)—high glucose (Euroclone S.p.A., Pero, MI, Italy) and Ham’s F12 Medium (Euroclone S.p.A., Pero, MI, Italy) supplemented with 10% FBS, 1% L-glutamine and 100 U/mL penicillin/streptomycin. For cell assays, cells were trypsinized using Trypsin-EDTA 1X in PBS (Euroclone S.p.A., Pero, MI, Italy).
(§3) HepG2 and SH-SY5Y cell viability was assessed as previously reported by using a conventional 3-(4,5-dimethylthiazol-2-yl)-2,5-diphenyltetrazolium bromide (MTT) assay. In brief, viable cells were seeded and grown for 24 h into a sterile 96-well cell culture cluster (Corning, Sigma-Aldrich, St. Louis, MO, USA) in a complete medium and maintained at 37 °C in a humidified atmosphere with 5% CO2. The cells were then added with different concentrations of each compound for a period of 1 h or 24 h. At the end, the culture medium was replaced by a solution of 0.5 mg/mL MTT (Sigma-Aldrich, St. Louis, MO, USA) in PBS. After 2 h of incubation at 37 °C in 5% CO2, the supernatant was carefully removed from each well, and the formazan crystals were dissolved in DMSO. The absorbance values were measured at 570 nm using Tecan Infinite M1000 Pro (Tecan, Cernusco S.N., Italy) and DMSO medium as blank solution. The results were reported as % cell viability = [optical density (OD) of tested compound/medium OD of control cells] × 100. The results are expressed as mean ± SEM of at least three independent measurements in triplicate.

[3] = MTT cell viability assay, HepG2; format: cell-based; details: human, HepG2 cells; for IC50 at 1 h: HepG2, 1 h exposure; for IC50 at 24 h: HepG2, 24 h exposure, read-out: MTT cytotoxicity IC50 ± SEM HepG2 24 h
Description: as §2, §3

hAChE = target: T2, hAChE (Homo sapiens, UniProt P22303); assay: biochemical; format: biochemical; details: mean ± SEM; for hAChE I% at 10 µM: inhibition at 10 µM
T2 construct: purchased
Description: as §1

HepG2 cells = assay: DCFH-DA cell-based antioxidant assay (H2O2-induced oxidation), HepG2; details: Homo sapiens, 1 h compound, 100 μM H2O2, read-out: DCFDH-DA IC50 ± SEM HepG2
Description: as §2, with “HepG2” for “Human hepatocellular liver carcinoma (HepG2) cell line and human neuroblastoma cell line, SH-SY5Y, were purchased from the American Type Culture Collection (ATCC, Manassas, VA, USA) and maintained at 37 °C in a humidified atmosphere (95% air and 5% carbon dioxide), and they were periodically screened for contamination. HepG2”
According to a slightly modified procedure already reported in the literature, the generation of ROS was determined using an oxidation-sensitive fluorescent probe, 2′,7′-dichlorodihydrofluorescein diacetate (DCFH-DA, D6665; Sigma-Aldrich, St. Louis, MO, USA). Briefly, viable cells were seeded in a black 96-well cell culture plate (Costar, Sigma-Aldrich, St. Louis, MO, USA) and after 24 h were incubated with different concentrations (0.1–100 µM) of each compound for 1 h at 37 °C in 5% CO2. […] After washing using PBS, 100 μM H2O2 in medium without serum was added to each well and the cells were incubated for an additional 30 min. The formation of fluorescent dichlorofluorescein (DCF) due to oxidation of DCFH in the presence of ROS, was read at 530 nm using a microplate reader Tecan Infinite M1000 Pro (Tecan, Cernusco S.N., Italy) and DMSO medium was used for control cells. The results are expressed as mean ± SEM of at least three independent measurements in triplicate.

T2 sequence (P22303 32-614): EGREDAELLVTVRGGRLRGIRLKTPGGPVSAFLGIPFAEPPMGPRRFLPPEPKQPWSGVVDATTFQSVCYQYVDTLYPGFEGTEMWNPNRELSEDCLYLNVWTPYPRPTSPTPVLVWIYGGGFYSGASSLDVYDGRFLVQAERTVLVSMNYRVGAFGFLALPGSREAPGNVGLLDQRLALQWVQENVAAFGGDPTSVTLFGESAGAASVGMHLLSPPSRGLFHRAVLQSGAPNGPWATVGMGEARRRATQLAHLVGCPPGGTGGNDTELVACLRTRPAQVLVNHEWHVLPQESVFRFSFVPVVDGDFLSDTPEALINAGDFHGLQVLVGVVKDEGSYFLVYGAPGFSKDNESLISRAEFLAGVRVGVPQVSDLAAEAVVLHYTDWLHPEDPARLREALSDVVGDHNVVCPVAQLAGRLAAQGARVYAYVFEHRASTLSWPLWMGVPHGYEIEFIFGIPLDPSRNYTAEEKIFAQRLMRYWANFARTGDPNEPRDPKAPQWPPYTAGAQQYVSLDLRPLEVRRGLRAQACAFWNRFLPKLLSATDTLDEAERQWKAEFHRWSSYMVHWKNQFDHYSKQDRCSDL
T1 sequence (P06276 29-602): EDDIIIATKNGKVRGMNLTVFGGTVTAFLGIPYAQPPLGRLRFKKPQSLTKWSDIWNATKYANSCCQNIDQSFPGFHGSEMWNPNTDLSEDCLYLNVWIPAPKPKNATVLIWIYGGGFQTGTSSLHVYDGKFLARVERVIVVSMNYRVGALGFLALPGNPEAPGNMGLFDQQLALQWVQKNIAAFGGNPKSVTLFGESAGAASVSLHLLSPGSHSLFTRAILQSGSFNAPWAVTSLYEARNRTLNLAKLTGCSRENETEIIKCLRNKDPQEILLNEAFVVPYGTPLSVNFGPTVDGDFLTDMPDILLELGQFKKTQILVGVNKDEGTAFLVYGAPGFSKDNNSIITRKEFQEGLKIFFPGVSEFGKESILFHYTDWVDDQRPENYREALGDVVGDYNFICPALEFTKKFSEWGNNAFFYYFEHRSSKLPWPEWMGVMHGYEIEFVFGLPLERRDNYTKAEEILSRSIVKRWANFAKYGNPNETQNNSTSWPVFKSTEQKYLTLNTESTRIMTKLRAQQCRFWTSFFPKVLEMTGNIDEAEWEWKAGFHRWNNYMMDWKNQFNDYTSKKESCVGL

O=C(NCC1CCN(Cc2ccccc2)CC1)c1ccc2c(c1)Nc1ccccc1S2 [Compound 11a, N-((1-Benzylpiperidin-4-yl)methyl)-10H-phenothiazine-2-carboxamide]
EC50 (μmol/μmol of DPPH ± SEM) [1]: 0.082 ± 0.007 μmol/μmol of DPPH | IC50 (hBChE): 2.16 ± 0.27 µM | IC50 at 1 h [2]: > 100 µM | IC50 at 24 h [2]: > 100 µM | IC50 at 1 h [3]: > 100 µM | IC50 at 24 h [3]: 62.7 ± 0.7 µM | IC50 (hAChE): 0.597 ± 0.064 µM | IC50 (HepG2 cells): 8.31 ± 1.4 µM

Cc1ccccc1CN1CCN(CCNC(=O)c2ccc3c(c2)Nc2ccccc2S3)CC1 [Compound 12c, N-(2-(4-(2-Methylbenzyl)piperazin-1-yl)ethyl)-10H-phenothiazine-2-carboxamide]
EC50 (μmol/μmol of DPPH ± SEM) [1]: 0.145 ± 0.010 μmol/μmol of DPPH | IC50 (hBChE): 2.5 ± 0.06 µM | IC50 at 1 h [2]: > 100 µM | IC50 at 24 h [2]: > 100 µM | IC50 at 1 h [3]: > 100 µM | IC50 at 24 h [3]: > 100 µM | hAChE I% at 10 µM (hAChE): 56% ± 3 ^b | IC50 (HepG2 cells): 4.21 ± 0.81 µM

O=C(NCCN1CCN(Cc2ccccc2Cl)CC1)c1ccc2c(c1)Nc1ccccc1S2 [Compound 12b, N-(2-(4-(2-Chlorobenzyl)piperazin-1-yl)ethyl)-10H-phenothiazine-2-carboxamide]
EC50 (μmol/μmol of DPPH ± SEM) [1]: 0.122 ± 0.011 μmol/μmol of DPPH | IC50 at 1 h [2]: > 100 µM | IC50 at 24 h [2]: 31.8 ± 2 µM | IC50 at 1 h [3]: > 100 µM | IC50 at 24 h [3]: > 100 µM | IC50 (hAChE): 1.85 ± 0.15 µM | IC50 (HepG2 cells): 18.7 ± 0.2 µM

O=C(NCC1CCN(Cc2ccccc2Cl)CC1)c1ccc2c(c1)Nc1ccccc1S2 [Compound 11b, N-((1-(2-Chlorobenzyl)piperidin-4-yl)methyl)-10H-phenothiazine-2-carboxamide]
EC50 (μmol/μmol of DPPH ± SEM) [1]: 0.139 ± 0.014 μmol/μmol of DPPH | IC50 (hBChE): 1.98 ± 0.12 µM | IC50 at 1 h [2]: > 100 µM | IC50 at 24 h [2]: 21.2 ± 1 µM | IC50 at 1 h [3]: > 100 µM | IC50 at 24 h [3]: 27.7 ± 0.4 µM | hAChE I% at 10 µM (hAChE): 52% ± 1 ^b | IC50 (HepG2 cells): 55.3 ± 1.1 µM

COc1cccc(CN2CCC(CNC(=O)c3ccc4c(c3)Nc3ccccc3S4)CC2)c1 [Compound 11e, N-((1-(3-Methoxybenzyl)piperidin-4-yl)methyl)-10H-phenothiazine-2-carboxamide]
EC50 (μmol/μmol of DPPH ± SEM) [1]: 0.104 ± 0.011 μmol/μmol of DPPH | hBChE I% at 10 µM (hBChE; inhibition at 10 µM): 47% ± 1 ^b | IC50 at 1 h [2]: > 100 µM | IC50 at 24 h [2]: 29 ± 1.1 µM | IC50 at 1 h [3]: > 100 µM | IC50 at 24 h [3]: 14.9 ± 0.61 µM | hAChE I% at 10 µM (hAChE): 22% ± 4 ^b | IC50 (HepG2 cells): 3.21 ± 0.5 µM

CC(=O)N1c2ccccc2Sc2ccc(C(=O)NCCN3CCN(Cc4ccccc4Cl)CC3)cc21 [Compound 13, 10-Acetyl-N-(2-(4-(2-chlorobenzyl)piperazin-1-yl)ethyl)-10H-phenothiazine-2-carboxamide]
IC50 at 1 h [2]: > 100 µM | IC50 at 24 h [2]: 55.3 ± 1.22 µM | IC50 at 1 h [3]: > 100 µM | IC50 at 24 h [3]: > 100 µM | hAChE I% at 10 µM (hAChE): 48% ± 5 ^b | IC50 (HepG2 cells): 0.63 ± 0.1 µM

O=C(NCCN1CCN(Cc2ccccc2)CC1)c1ccc2c(c1)Nc1ccccc1S2 [Compound 12a, N-(2-(4-Benzylpiperazin-1-yl)ethyl)-10H-phenothiazine-2-carboxamide]
EC50 (μmol/μmol of DPPH ± SEM) [1]: 0.182 ± 0.016 μmol/μmol of DPPH | IC50 (hBChE): 2.02 ± 0.03 µM | IC50 at 1 h [2]: > 100 µM | IC50 at 24 h [2]: > 100 µM | IC50 at 1 h [3]: > 100 µM | IC50 at 24 h [3]: 28.8 ± 0.42 µM | IC50 (hAChE): 0.943 ± 0.046 µM | IC50 (HepG2 cells): 1.13 ± 0.41 µM

O=C(NCC1CCN(Cc2ccccc2F)CC1)c1ccc2c(c1)Nc1ccccc1S2 [Compound 11d, N-((1-(2-Fluorobenzyl)piperidin-4-yl)methyl)-10H-phenothiazine-2-carboxamide]
EC50 (μmol/μmol of DPPH ± SEM) [1]: 0.126 ± 0.014 μmol/μmol of DPPH | IC50 (hBChE): 1.2 ± 0.01 µM | IC50 at 1 h [2]: > 100 µM | IC50 at 24 h [2]: 9.33 ± 0.86 µM | IC50 at 1 h [3]: > 100 µM | IC50 at 24 h [3]: 41 ± 0.2 µM | IC50 (hAChE): 1.75 ± 0.11 µM | IC50 (HepG2 cells): 1.82 ± 0.6 µM

Cc1ccccc1CN1CCC(CNC(=O)c2ccc3c(c2)Nc2ccccc2S3)CC1 [Compound 11c, N-((1-(2-Methylbenzyl)piperidin-4-yl)methyl)-10H-phenothiazine-2-carboxamide]
EC50 (μmol/μmol of DPPH ± SEM) [1]: 0.117 ± 0.013 μmol/μmol of DPPH | IC50 (hBChE): 1.47 ± 0.03 µM | IC50 at 1 h [2]: > 100 µM | IC50 at 24 h [2]: 15.2 ± 1.2 µM | IC50 at 1 h [3]: > 100 µM | IC50 at 24 h [3]: 35.2 ± 1.1 µM | hAChE I% at 10 µM (hAChE): 44% ± 2 ^b | IC50 (HepG2 cells): 17.6 ± 0.5 µM

O=C(NCCN1CCN(Cc2ccccc2F)CC1)c1ccc2c(c1)Nc1ccccc1S2 [Compound 12d, N-(2-(4-(2-Fluorobenzyl)piperazin-1-yl)ethyl)-10H-phenothiazine-2-carboxamide]
EC50 (μmol/μmol of DPPH ± SEM) [1]: 0.231 ± 0.026 μmol/μmol of DPPH | IC50 (hBChE): 4.33 ± 0.19 µM | IC50 at 1 h [2]: > 100 µM | IC50 at 24 h [2]: > 100 µM | IC50 at 1 h [3]: > 100 µM | IC50 at 24 h [3]: 42.9 ± 1.81 µM | IC50 (hAChE): 0.599 ± 0.112 µM | IC50 (HepG2 cells): 14.6 ± 0.5 µM
